Reference: US20150025120A1, “PYRAZOLE-ALCOHOL COMPOUNDS AND PHARMACEUTICAL USE THEREOF” (JAPAN TOBACCO INC., priority 2013, published 2015)

Tests used:
tissue PDH activity = test: Ex vivo PDH activation assay (liver and epididymal adipose tissue after oral administration); assay type: in vivo, Sprague-Dawley rats; settings: 3 mg/kg, rat, mean ± standard deviation
Method: The action of test compound on tissue PDH activity was evaluated. NADH production was detected via p-iodonitrotetrazolium violet (INT)-coupled system to measure PDH activity.
Normal male Sprague-Dawley rats were randomly allocated to the vehicle group and the test compound groups. The vehicle (0.5% aqueous methylcellulose solution, 5 mL/kg) or the test compound was orally administered to the rats. At 5 or 20 hr after administration, the rats were anesthetized with an intraperitoneal injection of sodium pentobarbital (60 mg/kg), and liver slices and epididymal adipose tissues were collected.
(§1) To the liver slices were rapidly added 9 volumes of ice-cold homogenization buffer (0.25 mol/L sucrose, 5 mmol/L tris(hydroxymethyl)aminomethane hydrochloride (pH 7.5), 2 mmol/L EDTA), and the mixtures were homogenized using a Polytron homogenizer. The homogenates were centrifuged at 600×g, 4° C. for 10 min to obtain the supernatant. The supernatants (1 mL) were centrifuged at 16,000×g, 4° C. for 10 min to collect the precipitates. The precipitates were washed by resuspension in the homogenization buffer (1 mL) and centrifuged in the same manner. The precipitates were frozen with liquid nitrogen and stored at −80° C. as the liver mitochondrial fraction.
as §1, with “adipose tissues” for “liver slices”, “3” for “9”, “of an” for “of”, “buffer,” for “buffer (0.25 mol/L sucrose, 5 mmol/L tris(hydroxymethyl)aminomethane hydrochloride (pH 7.5), 2 mmol/L EDTA),”, “supernatants” for “supernatants (1 mL)”, “adipose tissue” for “liver”
The mitochondrial fractions were thawed and suspended with the sample buffer (0.25 mol/L sucrose, 20 mmol/L tris(hydroxymethyl)aminomethane hydrochloride (pH 7.5), 50 mmol/L potassium chloride, and 1 mL/L 4-(1,1,3,3-tetramethylbutyl)phenyl-polyethylene glycol (Triton X-100)). Active PDH activity (PDHa activity) and total PDH activity (PDHt activity) were measured to evaluate the PDH activity. For the measurement of the PDHt activity, equal amounts of the mitochondrial suspension and the activation buffer (0.25 mol/L sucrose, 20 mmol/L tris(hydroxymethyl)aminomethane hydrochloride (pH 7.5), 50 mmol/L potassium chloride, 1 mL/L Triton X-100, 4 mmol/L calcium chloride, 40 mmol/L magnesium chloride, 10 mmol/L sodium dichloroacetate) were mixed, and the mixtures were incubated at 37° C. for 10 min. Forty microliters of the mitochondrial suspensions diluted with a sample buffer were added to a 96-well microplate for activity measurement and blank measurement. Then 180 μL of the reaction mixture (0.056 mmol/L potassium phosphate buffer (pH 7.5), 5.6 mmol/L DL-carnitine, 2.8 mmol/L NAD, 0.22 mmol/L thiamin pyrophosphate, 0.11 mmol/L Coenzyme A, 1.1 mL/L Triton X-100, 1.1 mmol/L magnesium chloride, 1.1 g/L bovine serum albumin, 0.67 mmol/L INT, 7.2 μmol/L phenazine methosulfate, 28 mmol/L sodium oxamate) was added to each well, and then 20 μL of 50 mmol/L sodium pyruvate for activity measurement or water for blank measurement were added. The mixtures were incubated at room temperature under shading. The absorbances at 500-750 nm, which were attributable to reduction of INT, the final electron acceptor, were measured using a microplate reader over time and the changes in the absorbance were calculated. The PDH activity was calculated by subtraction of the change in absorbance of the blank well from that of the activity measurement well. The percentage of the PDHa activity to the PDHt activity was calculated and taken as an index of the PDH activation.

[1] = target: T1, hERG current (hERG-transfected HEK293 cells) (Homo sapiens, UniProt Q12809); test: hERG whole cell patch clamp test; assay type: cell-based
T1 construct: host or cells: HEK293
T1 sequence (Q12809 whole entry): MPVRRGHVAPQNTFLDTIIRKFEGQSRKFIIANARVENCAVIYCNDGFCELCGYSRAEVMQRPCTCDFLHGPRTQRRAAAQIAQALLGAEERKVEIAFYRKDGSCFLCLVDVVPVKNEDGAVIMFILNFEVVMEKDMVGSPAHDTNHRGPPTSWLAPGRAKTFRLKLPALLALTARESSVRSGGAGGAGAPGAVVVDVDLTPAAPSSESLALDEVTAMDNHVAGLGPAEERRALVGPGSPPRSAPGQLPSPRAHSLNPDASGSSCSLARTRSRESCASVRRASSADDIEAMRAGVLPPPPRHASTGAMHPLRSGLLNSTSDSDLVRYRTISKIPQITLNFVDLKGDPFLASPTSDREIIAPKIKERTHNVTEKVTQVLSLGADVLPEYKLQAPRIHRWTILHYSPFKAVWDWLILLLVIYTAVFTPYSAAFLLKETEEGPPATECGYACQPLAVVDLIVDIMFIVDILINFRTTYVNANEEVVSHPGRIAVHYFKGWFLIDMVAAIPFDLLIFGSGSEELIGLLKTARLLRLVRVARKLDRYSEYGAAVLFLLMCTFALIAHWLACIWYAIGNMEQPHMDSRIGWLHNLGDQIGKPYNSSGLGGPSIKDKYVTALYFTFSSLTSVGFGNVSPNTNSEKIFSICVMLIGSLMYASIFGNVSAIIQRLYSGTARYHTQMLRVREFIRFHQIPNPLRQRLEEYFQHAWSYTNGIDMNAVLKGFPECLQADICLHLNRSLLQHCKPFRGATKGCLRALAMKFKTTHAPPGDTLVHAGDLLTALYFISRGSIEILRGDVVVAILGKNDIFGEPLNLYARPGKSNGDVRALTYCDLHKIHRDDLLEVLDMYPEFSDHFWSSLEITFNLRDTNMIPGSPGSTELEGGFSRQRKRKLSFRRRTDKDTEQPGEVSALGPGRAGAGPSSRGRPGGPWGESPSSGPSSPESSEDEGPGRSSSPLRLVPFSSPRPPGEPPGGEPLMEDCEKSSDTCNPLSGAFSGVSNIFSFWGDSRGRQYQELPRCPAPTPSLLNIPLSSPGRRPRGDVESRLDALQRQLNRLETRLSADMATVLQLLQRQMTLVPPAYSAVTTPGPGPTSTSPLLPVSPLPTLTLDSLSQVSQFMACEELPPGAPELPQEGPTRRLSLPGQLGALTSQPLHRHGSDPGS
Method: Using human ether-a-go-go related gene (hERG)-transfected HEK293 cells (Cytomyx Limited), an influence on hERG current was examined according to the whole cell patch clamp technique. The hERG-transfected HEK293 cells were passaged using a CO2 incubator (BNA-111, TABAI ESPEC CORP.) under the set conditions of 37° C., 5% CO2, saturated humidity. Culture containers used were Collagen Type I Coated 75 cm^2 flask (4123-010, AGC TECHNO GLASS CO., Ltd.) and Collagen Type I Coated 35 mm culture dish (4000-010, AGC TECHNO GLASS CO., Ltd.). The culture medium used was E-MEM (Eagle Minimum Essential Medium (Earle's Salts, Nikken biomedical laboratory) added with 10% FCS (Fetal calf serum, BioWest, L.L.C.) and 1% MEM Non-Essential Amino Acids Solution (NEAA, Invitrogen Corporation). Geneticin for the selection of hERG gene expressing cells was added thereto to a concentration of 400 μg/mL. As the cells for the measurement, 3×10^4 hERG-transfected HEK293 cells were plated on a 35 mm culture dish 4 to 7 days before measurement of the hERG current. The culture dish produced for the measurement contained the above-mentioned culture medium without geneticin (Invitrogen Corporation).
The highest evaluation concentration of each compound was determined from the highest concentration at which precipitation was not found in the standard extracellular fluid (NaCl: 140 mmol/L, KCl: 2.5 mmol/L, MgCl2: 2 mmol/L, CaCl2: 2 mmol/L, HEPES: 10 mmol/L, glucose: 10 mmol/L (adjusted to pH 7.4 with Tris-base)). As the application method, each solution to be applied was ejected from a Y-tube having a tip diameter of about 0.25 mm, which was adjacent (about 2 mm) to the cells, and applied to the cells. The ejection rate was about 0.4 mL/min.
The experiment was performed at room temperature under a phase contrast microscope. The 35 mm culture dish plated with the cells was set on a measurement apparatus, and the standard extracellular fluid was continuously applied to the cells from the Y-tube. A glass electrode for the measurement was filled with an intracellular fluid (Potassium Gluconate: 130 mmol/L, KCl: 20 mmol/L, MgCl2: 1 mmol/L, ATP-Mg: 5 mmol/L, EGTA: 3.5 mmol/L, HEPES: 10 mmol/L (adjusted to pH 7.2 with Tris-base)). A conventional whole cell patch clamp method was applied to the cells, and the maintenance electric potential was set to −80 mV. Under a fixed electric potential, the whole cell current was amplified by an amplifier for patch clamp (AXOPATCH-200B, Axon Instruments, Inc.), and the data was loaded into a computer (IMC-P642400, Intermedical Co., Ltd.) using a data acquisition analysis software (pCLAMP 9.2, Axon Instruments, Inc.).
The measurement of the hERG current was performed in the following two steps. In both cases, the hERG current was initiated by giving a command potential (maintenance electric potential −80 mV, prepulse+20 mV, 1.5 sec, test-pulse −50 mV, 1.5 sec).
Step (1): The above-mentioned command potential was given at 0.1 Hz for 2 min.
Step (2): The above-mentioned command potential was subjected to P/3 subtraction of pCLAMP 9.2 to remove leak current. This was repeated three times and an average thereof was taken as hERG current.
Subsequent to step (1), Step (2) was performed (about 3 min), and the maximum tail current obtained by applying a test-pulse to the hERG current obtained by the method of step (2) was taken as hERG current value. Hereafter, the operations of (1) and (2) were alternately repeated until completion of the experiment and the hERG current value was measured.
Stable hERG current value was recorded three times (about 10 min), and the standard extracellular fluid was instantaneously exchanged with each application fluid. The hERG current value was measured three times (about 10 min) in the same manner during perfusion of the application fluid, and the current value obtained by the 3rd measurement was taken as hERG current value after perfusion of the application fluid. […]

[2] = adipose tissue, 5 hr after oral administration
[3] = adipose tissue, 20 hr after oral administration
[4] = liver, 5 hr after oral administration
[5] = liver, 20 hr after oral administration

Compound | PDHa activity (% PDHt activity) (tissue PDH activity; [2]) | PDHa activity (% PDHt activity) (tissue PDH activity; [3]) | PDHa activity (% PDHt activity) (tissue PDH activity; [4]) | PDHa activity (% PDHt activity) (tissue PDH activity; [5]) | hERG inhibition rate (%) ([1]; concentration 3 μmol/L) | hERG inhibition rate (%) ([1]; concentration 30 μmol/L)
CC(C)(C(N)=O)n1cc(-c2cc(F)cc3c2-c2ccccc2[C@]3(O)C(F)(F)F)cn1 [compound (D), 2-{4-[(9R)-2-Fluoro-9-hydroxy-9-(trifluoromethyl)-9H-fluoren-4-yl]-1H-pyrazol-1-yl}-2-methylpropanamide] | 43 ± 7 % PDHt activity | 24 ± 3 % PDHt activity | 41 ± 15 % PDHt activity | 20 ± 1 % PDHt activity | 9.4% | 67.5%
CC(C)(O)COc1cc(-c2cnn(CCO)c2)c2c(c1)[C@@](O)(C(F)(F)F)c1ccccc1-2 [compound (C), (9R)-4-[1-(2-Hydroxyethyl)-1H-pyrazol-4-yl]-2-(2-hydroxy-2-methylpropoxy)-9-(trifluoromethyl)-9H-fluoren-9-ol] | 53 ± 4 % PDHt activity | 28 ± 7 % PDHt activity | 44 ± 5 % PDHt activity | 13 ± 3 % PDHt activity | 11.5% | 69.0%
